Patent US5703056A, “Non-invasive imaging of gene transfer” (priority 1995, dated 1997)
Values after ≈ are worked out from the molar mass of the structure shown. Read-outs that look alike come from different tables or passages of the source.

What was measured:
RG2 cells = assay: Ganciclovir sensitivity assay (methyl-[3H]-thymidine accumulation, percent of control); assay type: cell-based; conditions: Rattus norvegicus; naive RG2 cells; read-out: ganciclovir ED50
Experimental: (§1) Sensitivity to ganciclovir and selection of "high" and "low" sensitivity clones. […] Following one day of growth, the culture medium of RG2TK+ and RG2 cells in Costar™ 96-well plates was replaced with ganciclovir™-containing medium (Cytovene™; Syntax Laboratories, Inc.; Palo Alto, Calif.) in the following concentrations: 3, 1, 0.6, 0.3, 0.1, 0.06, 0.03, 0.01, 0,006, 0.003, 0.001, 0.0006, 0.0003, 0.0001, 0.00006 mg/ml and ganciclovir™-free control media. The ganciclovir™-containing and control incubation media were changed daily. […] Radioactivity measured in each ganciclovir™-containing well was expressed as a percent of control (ganciclovir™-free) activity.

RG2TK+ cells = assay: as above; assay type: cell-based, rat; conditions: for IC50: Rattus norvegicus, read-out: ganciclovir ED50
Experimental: Transduction of the HSV1-TK gene into RG2 cells. The STK retrovirus was obtained from filtered (0.1 μm) supernatants of gp-STK-A2 producer cell line cultures grown from a 50% confluent monolayer over 24 hours in Dulbecco's high-glucose medium with 10% bovine serum. Transduction of RG2 cells was accomplished by exposing the cell monolayer to the filtrate for 8 hours in the presence of Polybrene™ (8 μg/ml). Following a 24 hour incubation in standard medium, a selection medium containing Geneticin™ disulfate (800 μg/ml) was used to eliminate cells not expressing the neomycin resistance gene. The selection medium was changed daily to remove dead cells. After 7 days, a bulk culture of transduced RG2 cells (RG2TK+) was harvested for further propogation.
as §1

HSV1-TK = HSV1-TK (Human alphaherpesvirus 1 strain 17, UniProt P0DTH5); assay: Accumulation of radiolabelled marker substrates in RG2TK+ transduced and RG2 wild-type cells, normalized to TdR; assay type: cell-based, herpes simplex virus
Experimental: Source of radiolabelled "marker substrates". […] No carrier-added 5-[^123 I]-deoxyuridine (IUdR) was prepared by reacting 2-deoxyuridine (UdR) with carrier-free ^123 I-labelled sodium iodide in an iodogen coated reaction vial.
Comparison of "marker substrates" for identifying HSV1-tk gene expression in tissue culture. […] Each of these substrates were developed for or used as an anti-viral agent; they are phosphorylated by HSV1-TK and can be radiolabelled for noninvasive imaging.
Wild-type (nontransduced) RG2 cells were studied as a reference control. […] The cells were dislodged from the Petri dishes with a soft scraper, poured into 15 ml conical tubes, centrifuged and the medium aspirated. The tubes were cut to facilitate removing cells; they were blotted, placed in pre-weighed vials, weighed and prepared for counting. Samples were assayed for ^3 H- and ^14 C-radioactivity using a Packard B1600 TriCarb beta spectrometer using dual-channel and external standard splash and quench correction techniques. The medium was also counted before and following incubation. The data was expressed as a harvested cell-to-medium concentration ratio (dpm/g cells.div.dpm/ml medium).
Data analysis. […] These two related measures are useful to evaluate the intensity of the images (e.g., high "sensitivity") and the ability to differentiate between HSV1-TK and endogenous-TK in the images (e.g., high "selectivity"). The "selectivity" measure is not interpreted as a relative sensitivity (i.e., a value of 1 indicating equal sensitivity) of the substrate to HSV1-TK vs. endogenous-TK. […] They are intended for the direct comparison of substrates only.

Chain of HSV1-TK (P0DTH5 whole entry): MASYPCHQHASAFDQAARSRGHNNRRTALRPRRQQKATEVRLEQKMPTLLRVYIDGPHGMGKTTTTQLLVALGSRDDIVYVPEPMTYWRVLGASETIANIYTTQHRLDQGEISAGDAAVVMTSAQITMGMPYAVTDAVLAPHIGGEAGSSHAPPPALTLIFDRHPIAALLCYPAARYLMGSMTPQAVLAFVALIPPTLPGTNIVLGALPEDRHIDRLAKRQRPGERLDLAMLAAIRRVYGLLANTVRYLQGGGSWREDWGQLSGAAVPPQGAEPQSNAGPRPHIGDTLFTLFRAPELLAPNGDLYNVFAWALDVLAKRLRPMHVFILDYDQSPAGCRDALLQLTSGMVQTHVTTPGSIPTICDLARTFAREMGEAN

Nc1nc2c(ncn2COC(CO)CO)c(=O)[nH]1 [ganciclovir, 9-(1,3-dihydroxy-2-propoxymethyl)-guanine]
IC50 (RG2 cells): 200 µg/mL (≈ 784 µM) | fold more sensitive to ganciclovir compared to bulk RG2TK+ cells (RG2TK+ cells; "high" sensitivity RG2TK+ clones (clone #16) vs bulk RG2TK+): 5 fold | fold less sensitive to ganciclovir compared to bulk RG2TK+ cells (RG2TK+ cells; "low" sensitivity RG2TK+ clones vs bulk RG2TK+): roughly 30 fold | IC50 (RG2TK+ cells; "high-sensitivity" RG2TK+ clone #16): ~0.2 µg/mL (≈ 0.784 µM) | IC50 (RG2TK+ cells; "low-sensitivity" RG2TK+ clone #32): ~30 µg/mL (≈ 118 µM) | IC50 (RG2TK+ cells; bulk culture of transduced RG2TK+ cells): 1 µg/mL (≈ 3.92 µM) | fold more sensitive to ganciclovir than RG2 cells (RG2TK+ cells; bulk RG2TK+ cells vs wild-type RG2 cells): approximately 200 fold | fold more sensitive to ganciclovir than wild-type RG2 cells (RG2TK+ cells; high-sensitivity RG2TK+ clone #16 vs wild-type RG2): approximately 1000 fold | Selectivity+ Sensitivity*/(substrate/TdR) for RG2 (HSV1-TK; Data from FIG. 5): 0.143 | Sensitivity* Δ(substrate/TdR)/Δ(HSV1TK mRNA/S28 RNA IOD) (HSV1-TK; Data from FIG. 5): 0.0004 | accumulation of ganciclovir by RG2TK+ cells compared to that of FIAU (HSV1-TK; RG2TK+ cells): less than 5% | accumulation of ganciclovir by RG2TK+ cells compared to that of IUdR (HSV1-TK; RG2TK+ cells): < 3% | accumulation in bulk RG2TK+ cells relative to wild-type RG2 cells (HSV1-TK; normalized to TdR, FIGS. 4 and 5B): 5.6 fold
